ChEMBL document CHEMBL5096227, “Discovery of Ervogastat (PF-06865571): A Potent and Selective Inhibitor of Diacylglycerol Acyltransferase 2 for the Treatment of Non-alcoholic Steatohepatitis” (J Med Chem, 2022)

Tests used:
[1] = biological target: T1, Diacylglycerol O-acyltransferase 2 (Homo sapiens, UniProt Q96PD7); test: Inhibition of human DGAT2 expressed in Sf9 insect cell membrane using [1-14C]decanoyl-CoA and 1,2-didecanoyl-sn-glycerol as substrates assessed as incorporation of [1-14C]decanoyl into triacylglycerol preincubated for 120 mins followed by substrate addition and measured after 40 mins by scintillation counting method; type: cell membranes
T1 sequence (Q96PD7 whole entry): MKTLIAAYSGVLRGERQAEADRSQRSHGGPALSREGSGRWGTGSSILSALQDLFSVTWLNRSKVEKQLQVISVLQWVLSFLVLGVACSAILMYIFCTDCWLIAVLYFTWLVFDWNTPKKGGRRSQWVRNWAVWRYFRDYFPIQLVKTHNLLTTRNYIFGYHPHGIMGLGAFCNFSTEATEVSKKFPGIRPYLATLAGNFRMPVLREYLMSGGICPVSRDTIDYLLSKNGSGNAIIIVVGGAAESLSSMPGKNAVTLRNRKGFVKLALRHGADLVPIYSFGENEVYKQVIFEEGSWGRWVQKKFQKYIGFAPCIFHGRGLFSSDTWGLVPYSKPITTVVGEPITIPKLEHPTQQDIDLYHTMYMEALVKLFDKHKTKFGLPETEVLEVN

[2] = Apparent intrinsic clearance in cryopreserved human hepatocytes measured per million cells at 1 uM incubated for 4 hrs by LC-MS/MS analysis; type: ADME, cell-based, Hepatocyte; conditions: for hepatocyte CLint at 1 µM: cryopreserved human hepatocytes, read-out: CLH
[3] = Apparent permeability in MDCK-II cells; type: ADME, cell-based, Canis lupus familiaris; conditions: dog
physchem = conditions: buffer, pH 7.4
Description: Lipophilicity, logD of compound at pH 7.4 by shake flask method

[4] = Plasma clearance in Wistar Han rat; type: ADME
[5] = Apparent intrinsic clearance in human liver microsomes in presence of NADPH; type: ADME, Microsome; conditions: read-out: CLH
[6] = biological target: T2, Diacylglycerol O-acyltransferase 1 (Homo sapiens, UniProt O75907); test: Inhibition of human DGAT1 using [1-14C]decanoyl-CoA and 1,2-didecanoyl-sn-glycerol as substrates assessed as incorporation of [1-14C]decanoyl […] preincubated for 30 mins followed by substrate addition and measured after 30 to 90 mins by scintillation counting method
T2 sequence (O75907 whole entry): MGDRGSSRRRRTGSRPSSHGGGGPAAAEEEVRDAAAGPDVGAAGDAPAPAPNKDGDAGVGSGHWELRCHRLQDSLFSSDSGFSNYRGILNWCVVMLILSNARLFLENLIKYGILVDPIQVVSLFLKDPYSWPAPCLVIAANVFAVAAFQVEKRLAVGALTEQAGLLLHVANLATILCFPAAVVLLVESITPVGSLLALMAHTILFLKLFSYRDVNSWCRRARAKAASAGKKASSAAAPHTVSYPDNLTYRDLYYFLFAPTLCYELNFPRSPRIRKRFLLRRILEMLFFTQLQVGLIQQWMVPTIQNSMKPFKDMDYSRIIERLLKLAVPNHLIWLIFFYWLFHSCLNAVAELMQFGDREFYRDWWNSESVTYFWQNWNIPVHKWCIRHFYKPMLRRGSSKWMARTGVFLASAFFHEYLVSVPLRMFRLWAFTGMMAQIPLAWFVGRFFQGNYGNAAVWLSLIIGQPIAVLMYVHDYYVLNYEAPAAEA

Cytochrome P450 1A2 = biological target: T3, Cytochrome P450 1A2 (Homo sapiens, UniProt P05177); test: Reversible inhibition of CYP1A2 in pooled human liver microsomes using […] as substrate incubated for 20 mins in presence of NADPH by HPLC-MS/MS analysis; type: ADME, Microsome
T3 sequence (P05177 whole entry): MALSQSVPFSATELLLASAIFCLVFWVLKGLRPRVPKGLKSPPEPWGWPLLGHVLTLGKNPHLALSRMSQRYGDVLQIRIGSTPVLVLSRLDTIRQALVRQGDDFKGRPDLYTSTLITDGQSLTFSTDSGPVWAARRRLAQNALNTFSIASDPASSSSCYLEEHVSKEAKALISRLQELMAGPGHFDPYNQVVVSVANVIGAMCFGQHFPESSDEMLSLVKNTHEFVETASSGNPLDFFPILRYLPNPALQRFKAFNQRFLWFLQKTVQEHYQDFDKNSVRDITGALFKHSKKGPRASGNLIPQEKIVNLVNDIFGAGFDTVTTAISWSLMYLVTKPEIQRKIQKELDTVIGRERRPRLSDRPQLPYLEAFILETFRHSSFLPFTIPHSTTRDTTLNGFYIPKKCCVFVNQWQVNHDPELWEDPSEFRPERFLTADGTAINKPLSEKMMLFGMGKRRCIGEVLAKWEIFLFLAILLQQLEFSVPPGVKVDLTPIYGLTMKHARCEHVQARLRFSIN

CYP3A4/5 = CYP3A4/5 (Homo sapiens, UniProt P08684+P20815); test: Reversible inhibition of CYP3A4/5 in pooled human liver microsomes; type: ADME, Microsome
Cytochrome P450 2B6 = biological target: T4, Cytochrome P450 2B6 (Homo sapiens, UniProt P20813); test: Reversible inhibition of CYP2B6 in pooled human liver microsomes; type: ADME, Microsome
T4 sequence (P20813 whole entry): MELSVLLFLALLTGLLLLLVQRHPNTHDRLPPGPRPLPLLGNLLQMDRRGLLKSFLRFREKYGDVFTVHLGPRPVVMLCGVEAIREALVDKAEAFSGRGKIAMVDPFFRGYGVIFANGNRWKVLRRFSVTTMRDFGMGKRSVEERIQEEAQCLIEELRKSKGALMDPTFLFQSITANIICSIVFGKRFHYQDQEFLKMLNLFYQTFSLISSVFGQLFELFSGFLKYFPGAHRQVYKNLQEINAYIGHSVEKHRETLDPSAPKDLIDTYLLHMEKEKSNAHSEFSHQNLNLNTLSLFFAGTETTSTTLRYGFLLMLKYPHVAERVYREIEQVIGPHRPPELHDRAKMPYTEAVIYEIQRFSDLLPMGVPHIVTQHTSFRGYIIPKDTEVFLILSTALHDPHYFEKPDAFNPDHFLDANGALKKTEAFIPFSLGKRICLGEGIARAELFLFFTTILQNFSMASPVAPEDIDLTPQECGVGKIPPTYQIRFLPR

Cytochrome P450 2C8 = biological target: T5, Cytochrome P450 2C8 (Homo sapiens, UniProt P10632); test: Reversible inhibition of CYP2C8 in pooled human liver microsomes using desethylamodiaquine as substrate incubated for 10 mins in presence of NADPH by HPLC-MS/MS analysis; type: ADME, Microsome
T5 sequence (P10632 whole entry): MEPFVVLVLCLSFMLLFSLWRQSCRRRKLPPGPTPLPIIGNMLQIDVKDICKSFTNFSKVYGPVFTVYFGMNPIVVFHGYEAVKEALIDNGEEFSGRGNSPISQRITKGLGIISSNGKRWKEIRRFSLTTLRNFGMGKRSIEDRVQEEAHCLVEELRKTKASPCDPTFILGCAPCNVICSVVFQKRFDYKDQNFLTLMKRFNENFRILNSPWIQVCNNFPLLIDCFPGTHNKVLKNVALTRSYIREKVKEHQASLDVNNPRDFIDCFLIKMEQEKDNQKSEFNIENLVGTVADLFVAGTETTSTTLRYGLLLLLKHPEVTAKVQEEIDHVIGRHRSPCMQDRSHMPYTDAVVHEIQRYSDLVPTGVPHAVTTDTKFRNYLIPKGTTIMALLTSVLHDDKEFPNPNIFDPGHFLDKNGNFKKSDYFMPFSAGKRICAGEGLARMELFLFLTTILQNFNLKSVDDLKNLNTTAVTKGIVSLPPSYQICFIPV

Cytochrome P450 2C9 = Cytochrome P450 2C9 (Homo sapiens, UniProt P11712); test: Reversible inhibition of CYP2C9 in pooled human liver microsomes using 4-Hydroxydiclofenac as substrate incubated for 10 mins in presence of NADPH by HPLC-MS/MS analysis; type: ADME, Microsome
Cytochrome P450 2C19 = Cytochrome P450 2C19 (Homo sapiens, UniProt P33261); test: Reversible inhibition of CYP2C19 in pooled human liver microsomes using 4-Hydroxymephenytoin as substrate incubated for 20 mins in presence of NADPH by HPLC-MS/MS analysis; type: ADME, Microsome
Cytochrome P450 2D6 = Cytochrome P450 2D6 (Homo sapiens, UniProt P10635); test: Reversible inhibition of CYP2D6 in pooled human liver microsomes using dextrorphan as substrate incubated for 14 mins in presence of NADPH by HPLC-MS/MS analysis; type: ADME, Microsome
[7] = Volume of distribution at steady state in Wistar Han rat; type: ADME; conditions: in vivo, read-out: Vdss
[8] = Half life in Wistar Han rat; type: ADME; conditions: in vivo
[9] = Oral bioavailability in Wistar Han rat at 5 mg/kg; type: ADME, organism-based; conditions: in vivo
[10] = Drug metabolism in cryopreserved human hepatocytes assessed as O-dearylation mediated oxidative metabolite formation at 10 uM measured for 240 mins by HPLC-UV-MS analysis; type: ADME, cell-based, Hepatocyte; conditions: 4 h
[11] = Drug metabolism in cryopreserved human hepatocytes assessed as O-deethylation mediated pyridin-3-ol metabolite formation at 10 uM measured for 240 mins by HPLC-UV-MS analysis; type: ADME, cell-based, Hepatocyte; conditions: 4 h
[12] = Drug metabolism in cryopreserved human hepatocytes assessed as oxidation of primary alcohol to carboxylic acid mediated metabolite formation at 10 uM measured for 240 mins by HPLC-UV-MS analysis; type: ADME, cell-based, Hepatocyte; conditions: 4 h
[13] = Half life in human; type: ADME
[14] = Dissociation constant, pKa of compound; type: physicochemical
[15] = Apparent intrinsic clearance in human liver microsomes; type: ADME, Microsome; conditions: read-out: CLH
[16] = Apparent intrinsic clearance in human hepatocytes measured per million cells; type: ADME, cell-based, Hepatocyte; conditions: read-out: CLH
[17] = Apparent permeability of compound; type: ADME; conditions: not told
[18] = Lipophilicity, logD of compound; type: physicochemical; conditions: octanol/water

Cytochrome P450 2C9, sequence (P11712 whole entry): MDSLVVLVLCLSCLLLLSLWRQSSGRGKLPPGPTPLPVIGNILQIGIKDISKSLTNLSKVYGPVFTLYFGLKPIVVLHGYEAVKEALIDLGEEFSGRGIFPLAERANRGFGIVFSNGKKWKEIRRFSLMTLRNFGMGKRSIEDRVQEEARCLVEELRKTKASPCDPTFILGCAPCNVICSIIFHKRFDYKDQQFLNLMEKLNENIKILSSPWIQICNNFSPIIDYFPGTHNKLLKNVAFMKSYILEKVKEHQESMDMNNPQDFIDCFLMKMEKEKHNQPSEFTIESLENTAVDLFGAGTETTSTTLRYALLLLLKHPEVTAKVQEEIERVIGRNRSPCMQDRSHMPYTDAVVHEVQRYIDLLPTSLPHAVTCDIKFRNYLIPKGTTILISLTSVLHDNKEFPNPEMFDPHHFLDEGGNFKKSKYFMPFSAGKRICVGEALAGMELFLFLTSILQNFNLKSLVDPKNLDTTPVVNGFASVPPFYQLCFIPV
Cytochrome P450 2D6, sequence (P10635 whole entry): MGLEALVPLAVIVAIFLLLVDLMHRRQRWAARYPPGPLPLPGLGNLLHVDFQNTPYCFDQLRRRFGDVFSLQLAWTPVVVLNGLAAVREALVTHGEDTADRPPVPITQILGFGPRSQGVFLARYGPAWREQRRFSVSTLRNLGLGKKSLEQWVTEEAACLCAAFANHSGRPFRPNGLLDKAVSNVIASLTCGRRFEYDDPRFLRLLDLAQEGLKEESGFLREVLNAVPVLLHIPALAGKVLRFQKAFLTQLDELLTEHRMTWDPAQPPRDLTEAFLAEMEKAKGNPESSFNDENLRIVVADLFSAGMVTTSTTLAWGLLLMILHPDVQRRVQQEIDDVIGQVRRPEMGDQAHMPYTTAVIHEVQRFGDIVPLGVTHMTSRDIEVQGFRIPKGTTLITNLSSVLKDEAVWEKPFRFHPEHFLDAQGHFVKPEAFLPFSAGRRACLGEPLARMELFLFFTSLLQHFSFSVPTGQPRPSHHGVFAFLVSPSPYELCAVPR
Cytochrome P450 2C19, sequence (P33261 whole entry): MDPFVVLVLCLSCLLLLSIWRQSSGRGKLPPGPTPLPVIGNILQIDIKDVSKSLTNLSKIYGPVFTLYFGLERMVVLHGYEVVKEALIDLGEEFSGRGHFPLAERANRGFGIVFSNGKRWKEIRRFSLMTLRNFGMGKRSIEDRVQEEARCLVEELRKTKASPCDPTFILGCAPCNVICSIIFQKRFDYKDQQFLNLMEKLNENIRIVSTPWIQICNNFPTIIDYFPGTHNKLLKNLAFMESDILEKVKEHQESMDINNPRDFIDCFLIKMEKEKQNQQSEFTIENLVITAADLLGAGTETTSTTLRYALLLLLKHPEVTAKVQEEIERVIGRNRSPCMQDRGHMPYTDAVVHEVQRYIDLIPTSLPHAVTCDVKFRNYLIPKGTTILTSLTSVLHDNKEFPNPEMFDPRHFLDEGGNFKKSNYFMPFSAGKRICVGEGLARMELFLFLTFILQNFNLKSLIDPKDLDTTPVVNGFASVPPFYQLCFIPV

| SMILES | IC50 [1] | hepatocyte CLint at 1 µM [2] | Papp ([3]; MDCK, read-out: Papp) | logD (physchem) | further results |
| --- | --- | --- | --- | --- | --- |
| CCOc1cccnc1Oc1cncc(-c2ncc(C(=O)NC3CCOCC3)cn2)c1 | 353 nM | 7 µL/min/1e6 cells | 20 ×10⁻⁶ cm/s | 2.6 | – |
| CCNC(=O)c1cnc(-c2cncc(Oc3ncccc3OCC)c2)nc1 | 84.6 nM | 7 µL/min/1e6 cells | 15 ×10⁻⁶ cm/s | – | – |
| CCOc1cccnc1Oc1cncc(-c2ncc(C(=O)NC(C)(C)CO)cn2)c1 | 6.6 nM | 8 µL/min/1e6 cells | 21 ×10⁻⁶ cm/s | 2 | clearance [4]: 57 mL/min/kg; microsomal CLint [5]: 14 µL/min/mg; IC50 [6]: > 50000 nM; IC50 (Cytochrome P450 1A2): > 30000 nM; IC50 (CYP3A4/5): > 30000 nM; IC50 (Cytochrome P450 2B6): > 24000 nM; IC50 (Cytochrome P450 2C8): > 30000 nM; IC50 (Cytochrome P450 2C9): 7800 nM; IC50 (Cytochrome P450 2C19): > 30000 nM; IC50 (Cytochrome P450 2D6): > 30000 nM; Vd [7]: 1.2 L/kg; half-life [8]: 24 min; bioavailability [9]: 29%; Drug metabolism [10]: Metabolite_Notdetected; Drug metabolism [11]: Metabolite_Detected; Drug metabolism [12]: Metabolite_Detected; half-life [13]: > 240 min; pKa [14]: 2.5 |
| CCOc1ccccc1O[C@@H]1CCCN(c2ncc(C(=O)NCc3cccc(C(=O)O)c3)cn2)C1 | – | – | – | – | microsomal CLint [15]: 9 µL/min/mg; hepatocyte CLint [16]: < 12 µL/min/1e6 cells; Papp [17]: 2 ×10⁻⁶ cm/s; logD [18]: 0.7 |
| CCOc1cccnc1Oc1cncc(-c2ncc(C(=O)NC(C)(C)CS(C)(=O)=O)cn2)c1 | – | 8 µL/min/1e6 cells | 15 ×10⁻⁶ cm/s | 1.9 | – |
| CCOc1ccccc1O[C@@H]1CCCN(c2ncc(C(=O)NC(C)(C)CO)cn2)C1 | – | – | 19 ×10⁻⁶ cm/s | 2.8 | microsomal CLint [5]: 121 µL/min/mg |
| CCOc1cccnc1Oc1cncc(-c2ncc(C(=O)N[C@@H]3CCOC3)cn2)c1 | – | 5 µL/min/1e6 cells | 14 ×10⁻⁶ cm/s | 1.9 | – |
| CCOc1cccnc1O[C@@H]1CCCN(c2ncc(C(=O)NC(C)(C)CO)cn2)C1 | 31.8 nM | – | – | 1.8 | microsomal CLint [5]: 108 µL/min/mg |
| CCOc1cccnc1Oc1cncc(-c2ncc(C(=O)NC3CC(=O)N(C)C3)cn2)c1 (racemic) | 501 nM | < 3 µL/min/1e6 cells | 1 ×10⁻⁶ cm/s | 1.7 | – |
| CCOc1cccnc1Oc1cncc(-c2ncc(C(=O)NC3CCCOC3)cn2)c1 (racemic) | 11.5 nM | 11 µL/min/1e6 cells | 23 ×10⁻⁶ cm/s | 2.2 | – |
| CCOc1cccnc1Oc1cncc(-c2ncc(C(=O)NC3CCS(=O)(=O)C3)cn2)c1 (racemic) | – | 5 µL/min/1e6 cells | 5 ×10⁻⁶ cm/s | 1.6 | – |
| CCOc1cccnc1Oc1cncc(-c2ncc(C(=O)NC3(CO)CCOC3)cn2)c1 (stereo in doubt; 4) | – | < 3 µL/min/1e6 cells | 4 ×10⁻⁶ cm/s | 1.6 | – |
| CCOc1cccnc1Oc1cncc(-c2ncc(C(=O)NC3(CO)CCOC3)cn2)c1 (stereo in doubt; 5) | – | – | – | – | CLH ([2]; hepatocytes, 4 h, 1 µM): < 4 µL/min; Papp ([3]; mdck-ii): 3 10^-6 cm/s |
